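A five-concentration, 48-hour dose response in 96-well plates underlies each endpoint, interpolated linearly between surrounding concentrations. The concentration for 50% growth inhibition is given as GI50.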 Calls of active or inactive are those of the source. No stated cut-off is given here; in the data, active = GI50 up to about 1.1 µM and inactive = higher.
Columns and labels:
Assay in all cases: DTP human tumour cell line panel, 48 h
A498 = tested on: A498
COLO 205 = tested on: COLO 205
HCT-15 = tested on: HCT-15
HOP-62 = tested on: HOP-62
HT-29 = tested on: HT-29
KM12 = tested on: KM12
NCI-H23 = tested on: NCI-H23
OVCAR-3 = tested on: OVCAR-3
SF-295 = tested on: SF-295
SF-539 = tested on: SF-539
SN12C = tested on: SN12C
UO-31 = tested on: UO-31
CCRF-CEM = tested on: CCRF-CEM
HOP-92 = tested on: HOP-92
HL-60 = tested on: HL-60

| Compound | GI50 (A498) | GI50 (COLO 205) | GI50 (HCT-15) [µM] | GI50 (HOP-62) | GI50 (HT-29) | GI50 (KM12) | GI50 (NCI-H23) | GI50 (OVCAR-3) | GI50 (SF-295) | GI50 (SF-539) | GI50 (SN12C) | GI50 (UO-31) | GI50 (CCRF-CEM) | GI50 (HOP-92) | GI50 (HL-60) |
| --- | --- | --- | --- | --- | --- | --- | --- | --- | --- | --- | --- | --- | --- | --- | --- |
| CCOC(=O)[C@H]1Nc2ccc(OC)cc2C2c3ccccc3CC21 (stereo partly specified) | > 100 µM (inactive) | > 100 µM (inactive) | > 100 | > 100 µM (inactive) | > 100 µM (inactive) | > 100 µM (inactive) | > 100 µM (inactive) | > 100 µM (inactive) | > 100 µM (inactive) | > 100 µM (inactive) | > 100 µM (inactive) | > 100 µM (inactive) | – | – | – |
| CCOC(=O)C1=C(C)N(NC(=O)Nc2ccccc2)C2(N)N(NC(=O)Nc3ccccc3)C(C)=C(C(=O)OCC)C12C#N (stereo unspecified) | 22.3 µM (inactive) | 17.7 µM (inactive) | 19.4 | – | 20.7 µM (inactive) | – | 22.3 µM (inactive) | 17.5 µM (inactive) | – | – | 17.6 µM (inactive) | > 100 µM (inactive) | 28.2 µM (inactive) | 20.2 µM (inactive) | – |
| Cc1nc2nnc(C)n2c2c1C(=O)Nc1ccccc1N2 | – | > 100 µM (inactive) | – | > 100 µM (inactive) | > 100 µM (inactive) | > 100 µM (inactive) | > 100 µM (inactive) | > 100 µM (inactive) | > 100 µM (inactive) | > 100 µM (inactive) | > 100 µM (inactive) | > 100 µM (inactive) | > 100 µM (inactive) | > 100 µM (inactive) | > 100 µM (inactive) |
| Cc1cc2c(c(C(N)=O)c1C)-c1cc(Cl)cc(Cl)c1C2=O | 54.6 µM (inactive) | > 100 µM (inactive) | > 100 | > 100 µM (inactive) | > 100 µM (inactive) | > 100 µM (inactive) | > 100 µM (inactive) | > 100 µM (inactive) | 73.8 µM (inactive) | 90.2 µM (inactive) | > 100 µM (inactive) | > 100 µM (inactive) | > 100 µM (inactive) | > 100 µM (inactive) | > 100 µM (inactive) |
| C/C(CC(=O)Nc1ccc(C)c(C)c1)=N\NC(N)=O | > 100 µM (inactive) | > 100 µM (inactive) | – | > 100 µM (inactive) | > 100 µM (inactive) | > 100 µM (inactive) | > 100 µM (inactive) | > 100 µM (inactive) | > 100 µM (inactive) | > 100 µM (inactive) | – | > 100 µM (inactive) | > 100 µM (inactive) | > 100 µM (inactive) | > 100 µM (inactive) |
| CC1=NN(C(=O)c2ccncc2)C(=O)C1/N=N/c1ccc(F)cc1 (stereo unspecified) | 60.5 µM (inactive) | > 100 µM (inactive) | > 100 | – | > 100 µM (inactive) | – | > 100 µM (inactive) | > 100 µM (inactive) | > 100 µM (inactive) | 59.2 µM (inactive) | > 100 µM (inactive) | 45.3 µM (inactive) | – | 51.6 µM (inactive) | > 100 µM (inactive) |
| CN(C)CCSc1nccc(-c2cc3ccccc3s2)n1 | 20.1 µM (inactive) | 17.2 µM (inactive) | 18.6 | 23.8 µM (inactive) | 9.06 µM (inactive) | 19.3 µM (inactive) | > 10 µM (inactive) | 44.5 µM (inactive) | 16.2 µM (inactive) | 18.2 µM (inactive) | 30.4 µM (inactive) | 19.1 µM (inactive) | 20 µM (inactive) | 2.87 µM (inactive) | – |
| CNS(=O)(=O)NNS(=O)(=O)c1cccc([N+](=O)[O-])c1 | – | > 100 µM (inactive) | > 100 | > 100 µM (inactive) | > 100 µM (inactive) | > 100 µM (inactive) | > 100 µM (inactive) | > 100 µM (inactive) | > 100 µM (inactive) | > 100 µM (inactive) | > 100 µM (inactive) | > 100 µM (inactive) | > 100 µM (inactive) | – | – |
| C/C(=N\NC(=N)N)C(CN1CCOCC1)C(c1ccccc1)c1c(O)c2ccccc2oc1=O (stereo unspecified) | – | 49.4 µM (inactive) | > 100 | > 100 µM (inactive) | > 100 µM (inactive) | > 100 µM (inactive) | 76.7 µM (inactive) | > 100 µM (inactive) | > 100 µM (inactive) | 77.6 µM (inactive) | > 100 µM (inactive) | – | > 100 µM (inactive) | 25.7 µM (inactive) | 49.1 µM (inactive) |
| N#CC1=C(N)Oc2c(ccc3cccnc23)C1c1ccccc1 (stereo unspecified) | 2.21 µM (inactive) | 1.24 µM (inactive) | 0.443 | 1.16 µM (inactive) | 0.339 µM (active) | 0.441 µM (active) | 1.31 µM (inactive) | 0.608 µM (active) | 0.515 µM (active) | 1.25 µM (inactive) | 3.3 µM (inactive) | 4.46 µM (inactive) | 1.44 µM (inactive) | 9.35 µM (inactive) | 0.267 µM (active) |
| Cc1ccc(/C=C/C(=O)c2sc(-c3cccnc3)nc2C)cc1 | > 100 µM (inactive) | > 100 µM (inactive) | > 100 | > 100 µM (inactive) | > 100 µM (inactive) | > 100 µM (inactive) | > 100 µM (inactive) | > 100 µM (inactive) | > 100 µM (inactive) | > 100 µM (inactive) | > 100 µM (inactive) | > 100 µM (inactive) | > 100 µM (inactive) | > 100 µM (inactive) | > 100 µM (inactive) |
| COc1ccc(/C=N/NC(=O)NCCNCCO)cc1 | > 100 µM (inactive) | > 100 µM (inactive) | > 100 | > 100 µM (inactive) | > 100 µM (inactive) | > 100 µM (inactive) | > 100 µM (inactive) | > 100 µM (inactive) | > 100 µM (inactive) | > 100 µM (inactive) | > 100 µM (inactive) | > 100 µM (inactive) | > 100 µM (inactive) | > 100 µM (inactive) | > 100 µM (inactive) |
| [N-]=[N+]=NC12CC3C4CC5CC3C(C1)C(C5)C4C2 | > 100 µM (inactive) | > 100 µM (inactive) | – | > 100 µM (inactive) | > 100 µM (inactive) | > 100 µM (inactive) | > 100 µM (inactive) | > 100 µM (inactive) | > 100 µM (inactive) | > 100 µM (inactive) | > 100 µM (inactive) | > 100 µM (inactive) | > 100 µM (inactive) | > 100 µM (inactive) | – |
| CN(C)c1ccc(/C=C2\C=Cc3ccccc32)cc1 | 42.7 µM (inactive) | 58.6 µM (inactive) | 34.6 | > 100 µM (inactive) | 40.4 µM (inactive) | 49.7 µM (inactive) | 35.6 µM (inactive) | 73.6 µM (inactive) | 34.3 µM (inactive) | 50.7 µM (inactive) | 39.9 µM (inactive) | 20.2 µM (inactive) | 43.2 µM (inactive) | 44.5 µM (inactive) | 27.9 µM (inactive) |
| Cc1nc(O)nc(CC(O)(c2ccccc2)c2ccccc2)c1-c1ccccc1 | > 100 µM (inactive) | > 100 µM (inactive) | > 100 | > 100 µM (inactive) | > 100 µM (inactive) | > 100 µM (inactive) | > 100 µM (inactive) | > 100 µM (inactive) | > 100 µM (inactive) | > 100 µM (inactive) | > 100 µM (inactive) | 50.1 µM (inactive) | > 100 µM (inactive) | 55.8 µM (inactive) | > 100 µM (inactive) |
| CCOC(=O)C12CCSC1C1(C#N)C(C#N)=CC2(N=P(c2ccccc2)(c2ccccc2)c2ccccc2)n2c(=O)n(-c3ccccc3)c(=O)n21 (stereo unspecified) | 51.5 µM (inactive) | 37.8 µM (inactive) | 34.8 | 46.2 µM (inactive) | 39.8 µM (inactive) | 32.6 µM (inactive) | 49.7 µM (inactive) | 25.4 µM (inactive) | 36.6 µM (inactive) | 73.6 µM (inactive) | 62.2 µM (inactive) | 24.2 µM (inactive) | 34.5 µM (inactive) | 12.4 µM (inactive) | 26.1 µM (inactive) |
| Cn1c2cc([N+](=O)[O-])ccc2c(=O)c2c(O)cc3c(c21)C=CC(C)(C)O3 | 33.5 µM (inactive) | > 100 µM (inactive) | > 100 | – | > 100 µM (inactive) | > 100 µM (inactive) | 63.4 µM (inactive) | – | 16.9 µM (inactive) | 14.8 µM (inactive) | > 100 µM (inactive) | 26.7 µM (inactive) | > 100 µM (inactive) | – | > 100 µM (inactive) |
| N#Cc1ccc(Nc2cnc3cc(N)ccc3n2)cc1 | – | > 100 µM (inactive) | > 100 | > 100 µM (inactive) | 50.5 µM (inactive) | > 100 µM (inactive) | > 100 µM (inactive) | 95.9 µM (inactive) | > 100 µM (inactive) | > 100 µM (inactive) | 89.1 µM (inactive) | 56 µM (inactive) | 33 µM (inactive) | 54.5 µM (inactive) | 14.9 µM (inactive) |
| Cc1nc(Nc2ccccc2)sc1C(=O)CC(=O)C(=O)NC12CC3CC(CC(C3)C1)C2 | – | > 100 µM (inactive) | > 100 | 83.2 µM (inactive) | > 100 µM (inactive) | > 100 µM (inactive) | > 100 µM (inactive) | > 100 µM (inactive) | 71.3 µM (inactive) | > 100 µM (inactive) | > 100 µM (inactive) | 92.3 µM (inactive) | 82.4 µM (inactive) | 23 µM (inactive) | 92.3 µM (inactive) |
| NCCNc1cccc2ccccc12 | > 100 µM (inactive) | > 100 µM (inactive) | > 100 | > 100 µM (inactive) | > 100 µM (inactive) | > 100 µM (inactive) | > 100 µM (inactive) | > 100 µM (inactive) | > 100 µM (inactive) | > 100 µM (inactive) | > 100 µM (inactive) | > 100 µM (inactive) | – | > 100 µM (inactive) | > 100 µM (inactive) |

Source: ChEMBL document CHEMBL1201862, “PubChem BioAssay data set” (2004)
